Reference: patent publication US20260265694A1, “USE OF A VITISIN COMPOUND FOR THE PRODUCTION OF HEMATOPOIETIC CELLS” (ETABLISSEMENT FRANCAIS DU SANG, priority 2022, published 2026)

System: CD34+ cells from peripheral blood
Assay: AMPLIFICATION PROTOCOL: ex vivo amplification of hematopoietic progenitors
Format: cell-based, human
Settings: 10 μM; for effect on the proportion and total amount of CD34+CD133neg cells: FIG. 2
Protocol: This is a strategy for the amplification of hematopoietic progenitors. The culture is formed as follows: CD34^+ cells from peripheral blood are isolated (as indicated in section II.A.1), and cultured for 12 days in Stem Span II medium (Stem Cell Technologies) supplemented with cytokines: SCF 100 ng/mL, FLT3-L 100 ng/mL, TPO 20 ng/mL, G-CSF 10 ng/mL. The amplification product is analyzed by quantification of proliferation (count on Malassez slides) and phenotypic analysis of CD34^+ cell subpopulations by flow cytometry. […] Vitisin B is also compared with the following stilbene-type molecules at 10 μM concentration: Resveratrol, Pallidol, E-Viniferin, Ampelopsin, Oxyresveratrol, Picateatannol, Gnetol
At the end of the hematopoietic cell amplification protocol, an analysis of cell proliferation and amplification of immature and committed cell populations is performed.
Cell proliferation is evaluated by counting cells on Malassez slides with Trypan blue exclusion of dead cells.
The amplification of cell populations is based on a phenotypic analysis relating to the evolution of the expression of membrane markers CD34 and CD133 by flow cytometry. These markers make it possible to define more or less immature cell populations organized hierarchically as follows: CD34^+CD133^+->CD34^+CD133^neg->CD34^negCD133^neg. To this end, cells are incubated with anti-CD34 (1:100,000) (BD Pharmingen) and anti-CD133 (1:100,000) (BD Pharmingen) antibodies for 15 minutes. The cells are then rinsed with a PBS solution and centrifuged (430×g, 10 min, 4° C.). After resuspension of the cell pellets in PBS, the cells are analyzed by flow cytometry (FACSCantoll, Becton Dickinson, San Jose, CA).
The proportions of each phenotypic population thus observed and the total amount of cells make it possible to calculate the rate of amplification of the most immature cells (CD34^+CD133+) compared with the amplification of more committed progenitors (CD34^+CD133^neg and CD34^negCD133^neg).

SMILES	effect on the proportion and total amount of CD34+CD133neg cells	amplification of the CD34+CD133neg subpopulation (erythrocyte potential) (FIG. 1)
O=C1c2c(O)cc(O)cc2O[C@H](c2cc(O)c(O)c(O)c2)[C@H]1O [AMPELOPSIN, Ampelopsin]	only vitisin B has a convincing effect	
Oc1ccc(/C=C/c2cc(O)cc3c2[C@@H](c2cc(O)cc(O)c2)[C@H](c2ccc(O)cc2)O3)cc1 [E-VINIFERIN, E-Viniferin]	only vitisin B has a convincing effect	
Oc1cc(O)cc(/C=C/c2c(O)cccc2O)c1 [GNETOL, Gnetol]	only vitisin B has a convincing effect	
Oc1cc(O)cc(/C=C/c2ccc(O)cc2O)c1 [OXYRESVERATROL, Oxyresveratrol]	only vitisin B has a convincing effect	
Oc1ccc(C=Cc2cc(O)cc(O)c2)cc1 [RESVERATROL, Resveratrol]	only vitisin B has a convincing effect	no effect
